# Data as given in patent US20230017786A1, “DEXTR[…] A DISEASE-MODIFYING TREATMENT FOR NEUROPSYCHIATRIC DISORDERS AND DISEASES” (priority 2020, published 2023).
# Several values for one entry are separate records, joined by “and”; a condition that tells them apart may be missing. Equal values may be shown once.
# Columns and labels:
# [1] = molecular target: T1, human NMDA receptor GluN1-GluN2D (Homo sapiens, UniProt O15399+Q05586); assay: FLIPR calcium assay, test item effect on L-glutamate CRC, GluN1-GluN2D-CHO; assay type: cell-based
# T1 construct: expressed in transfected cells; host or cells: CHO
# [2] = molecular target: T2, recombinant human NMDAR GluN1 plus GluN2B (Homo sapiens, UniProt Q05586+Q13224); assay: FLIPR calcium assay, gentamicin as PAM (Example 5 Part I), GluN2B cell line; assay type: cell-based; details: 10 μM test item; dextromethadone in presence and absence of 10 μM gentamicin
# T2 construct: expressed in transfected cells; host or cells: CHO
# Source text: (§1) A FLIPR calcium assay was used to profile gentamicin using stable cell lines expressing diheteromeric recombinant human NMDARs, containing GluN1 plus one amongst GluN2A, GluN2B, GluN2C or GluN2D subunit.
# [3] = molecular target: T3, recombinant human NMDAR GluN1 plus GluN2D (Homo sapiens, UniProt O15399+Q05586); assay: FLIPR calcium assay, gentamicin as PAM (Example 5 Part I), GluN2D cell line; assay type: cell-based; details: 10 μM test item; dextromethadone in presence and absence of 10 μM gentamicin
# T3 construct: expressed in transfected cells; host or cells: CHO
# Source text: as §1
# [4] = molecular target: T4, human NMDA receptor GluN1-GluN2A (Homo sapiens, UniProt Q05586+Q12879); assay: FLIPR calcium assay, quinolinic acid, gentamicin, dextromethadone (Example 5 Part II), GluN1-GluN2A-CHO; assay type: cell-based; set-up: calcium response (mean±SEM): unit not given here; details: 10 μM glycine; for calcium response (mean±SEM): GluN2A, n=42
# T4 construct: expressed in transfected cells; host or cells: CHO
# Procedure, shortened: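 CHO lines expressing diheteromeric human GluN1/GluN2A–D, loaded 1 h with Fluo-4, tested by FLIPR for intracellular calcium with 10 μM glycine present. Quinolinic acid, gentamicin and test items were run as concentration-response curves, alone or combined. EC50 obtained from a four-parameter Hill fit.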
# [5] = molecular target: T5, GluN1/GluN2D receptor (Homo sapiens, UniProt O15399+Q05586); assay: Automated patch clamp (QPatch HTX) in presence of 1 mM extracellular magnesium; assay type: cell-based; details: 10 μM dextromethadone, 1 mM Mg2+
# T5 construct: expressed in transfected cells; host or cells: CHO
# Method: Automated patch clamp experiments were performed in QPatch HTX (Sophion Bioscience A/S, Ballerup, Denmark) using CHO cells stably expressing recombinant diheteromeric human NMDAR. Cells were clamped at −80 mV holding potential in presence of 1 mM extracellular magnesium. Voltage protocol included a depolarizing 2 s step pulse to +60 mV, to check quality of the seal and cell NMDAR expression level, followed by a 2 s ramp back to holding potential.
# [6] = molecular target: 5-HT2A receptor (Homo sapiens, UniProt P28223); details: agonist; Rickli et al., 2018; cited from earlier work
# [7] = system: healthy subjects; assay: Phase 1 SAD and MAD studies, safety and tolerability
# [8] = molecular target: human GluN1-GluN2C NMDA receptor (Homo sapiens, UniProt Q05586+Q14957); assay: Manual patch clamp trapping assay, hGluN1/hGluN2C-CHO cells; details: test item 10 μM
# human GluN1-GluN2C NMDA receptor, sequence (Q14957 20-1233, other chains not shown): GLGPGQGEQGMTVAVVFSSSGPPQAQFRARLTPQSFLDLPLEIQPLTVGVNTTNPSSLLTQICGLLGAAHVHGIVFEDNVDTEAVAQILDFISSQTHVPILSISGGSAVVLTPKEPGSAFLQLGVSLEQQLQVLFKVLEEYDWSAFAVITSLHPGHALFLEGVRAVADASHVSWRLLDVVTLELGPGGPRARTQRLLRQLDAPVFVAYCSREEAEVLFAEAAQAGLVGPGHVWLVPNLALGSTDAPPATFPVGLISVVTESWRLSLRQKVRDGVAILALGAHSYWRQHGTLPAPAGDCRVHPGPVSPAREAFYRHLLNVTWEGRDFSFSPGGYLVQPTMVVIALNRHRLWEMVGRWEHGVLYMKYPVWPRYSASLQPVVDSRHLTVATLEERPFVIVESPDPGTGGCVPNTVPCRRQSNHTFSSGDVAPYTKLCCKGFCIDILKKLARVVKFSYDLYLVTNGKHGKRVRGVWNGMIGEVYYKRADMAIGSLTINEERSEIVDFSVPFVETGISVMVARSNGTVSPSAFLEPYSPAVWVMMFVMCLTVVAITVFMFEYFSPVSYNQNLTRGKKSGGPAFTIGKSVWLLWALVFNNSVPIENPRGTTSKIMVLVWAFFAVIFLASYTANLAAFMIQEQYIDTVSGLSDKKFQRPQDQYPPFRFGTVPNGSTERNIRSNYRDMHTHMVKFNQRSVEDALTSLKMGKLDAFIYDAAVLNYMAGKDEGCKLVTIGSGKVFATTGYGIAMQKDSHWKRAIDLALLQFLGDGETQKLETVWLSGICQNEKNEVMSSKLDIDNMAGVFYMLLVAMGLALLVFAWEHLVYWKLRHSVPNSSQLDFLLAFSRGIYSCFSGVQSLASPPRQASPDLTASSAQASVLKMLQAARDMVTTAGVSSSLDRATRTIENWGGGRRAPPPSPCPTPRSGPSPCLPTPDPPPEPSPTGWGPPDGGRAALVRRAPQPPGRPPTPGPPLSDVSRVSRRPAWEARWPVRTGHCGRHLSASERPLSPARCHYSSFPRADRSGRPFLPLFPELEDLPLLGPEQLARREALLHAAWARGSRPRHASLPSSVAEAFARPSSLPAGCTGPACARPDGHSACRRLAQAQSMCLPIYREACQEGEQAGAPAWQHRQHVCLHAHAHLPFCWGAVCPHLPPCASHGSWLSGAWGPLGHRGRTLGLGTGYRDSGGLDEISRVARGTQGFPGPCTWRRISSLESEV
# T4 sequence (Q12879 23-1464, other chains not shown): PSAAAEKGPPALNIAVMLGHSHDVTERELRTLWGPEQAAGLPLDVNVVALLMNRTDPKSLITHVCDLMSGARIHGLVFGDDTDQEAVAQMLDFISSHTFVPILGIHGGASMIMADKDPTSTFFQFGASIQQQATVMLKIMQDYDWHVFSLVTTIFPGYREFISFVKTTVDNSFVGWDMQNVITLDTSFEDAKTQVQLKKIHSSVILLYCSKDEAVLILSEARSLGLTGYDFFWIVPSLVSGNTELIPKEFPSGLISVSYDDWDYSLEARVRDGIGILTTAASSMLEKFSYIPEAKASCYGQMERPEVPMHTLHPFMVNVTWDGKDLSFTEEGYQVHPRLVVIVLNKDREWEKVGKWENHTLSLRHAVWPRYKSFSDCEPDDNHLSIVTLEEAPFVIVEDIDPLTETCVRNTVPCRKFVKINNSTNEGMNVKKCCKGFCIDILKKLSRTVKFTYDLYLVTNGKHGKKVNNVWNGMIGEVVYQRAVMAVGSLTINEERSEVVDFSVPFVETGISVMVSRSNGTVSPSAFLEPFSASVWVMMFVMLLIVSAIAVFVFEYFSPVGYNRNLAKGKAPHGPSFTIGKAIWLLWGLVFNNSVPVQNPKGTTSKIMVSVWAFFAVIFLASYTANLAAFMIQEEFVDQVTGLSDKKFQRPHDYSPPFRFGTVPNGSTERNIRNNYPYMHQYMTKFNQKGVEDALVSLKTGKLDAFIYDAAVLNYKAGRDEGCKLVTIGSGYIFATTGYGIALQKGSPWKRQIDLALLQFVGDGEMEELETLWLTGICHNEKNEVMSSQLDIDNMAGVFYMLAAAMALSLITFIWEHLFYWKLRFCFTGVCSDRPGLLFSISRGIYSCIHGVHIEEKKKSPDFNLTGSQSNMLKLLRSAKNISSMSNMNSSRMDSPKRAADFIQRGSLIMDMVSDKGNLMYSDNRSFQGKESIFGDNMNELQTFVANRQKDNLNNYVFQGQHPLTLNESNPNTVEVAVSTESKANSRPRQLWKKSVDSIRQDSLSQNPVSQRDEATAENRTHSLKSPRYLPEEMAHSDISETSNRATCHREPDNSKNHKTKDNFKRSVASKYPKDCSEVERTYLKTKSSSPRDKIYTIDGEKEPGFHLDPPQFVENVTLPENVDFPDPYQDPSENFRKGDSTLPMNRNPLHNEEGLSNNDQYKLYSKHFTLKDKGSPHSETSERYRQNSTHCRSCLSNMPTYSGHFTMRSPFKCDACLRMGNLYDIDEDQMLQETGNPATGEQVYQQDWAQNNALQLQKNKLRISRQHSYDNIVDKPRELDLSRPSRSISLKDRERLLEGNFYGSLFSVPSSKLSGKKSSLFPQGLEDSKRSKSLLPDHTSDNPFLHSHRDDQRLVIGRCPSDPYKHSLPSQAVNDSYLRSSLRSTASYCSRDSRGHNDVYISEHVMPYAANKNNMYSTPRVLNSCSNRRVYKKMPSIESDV
# T1 sequence (O15399 28-1336, other chains not shown): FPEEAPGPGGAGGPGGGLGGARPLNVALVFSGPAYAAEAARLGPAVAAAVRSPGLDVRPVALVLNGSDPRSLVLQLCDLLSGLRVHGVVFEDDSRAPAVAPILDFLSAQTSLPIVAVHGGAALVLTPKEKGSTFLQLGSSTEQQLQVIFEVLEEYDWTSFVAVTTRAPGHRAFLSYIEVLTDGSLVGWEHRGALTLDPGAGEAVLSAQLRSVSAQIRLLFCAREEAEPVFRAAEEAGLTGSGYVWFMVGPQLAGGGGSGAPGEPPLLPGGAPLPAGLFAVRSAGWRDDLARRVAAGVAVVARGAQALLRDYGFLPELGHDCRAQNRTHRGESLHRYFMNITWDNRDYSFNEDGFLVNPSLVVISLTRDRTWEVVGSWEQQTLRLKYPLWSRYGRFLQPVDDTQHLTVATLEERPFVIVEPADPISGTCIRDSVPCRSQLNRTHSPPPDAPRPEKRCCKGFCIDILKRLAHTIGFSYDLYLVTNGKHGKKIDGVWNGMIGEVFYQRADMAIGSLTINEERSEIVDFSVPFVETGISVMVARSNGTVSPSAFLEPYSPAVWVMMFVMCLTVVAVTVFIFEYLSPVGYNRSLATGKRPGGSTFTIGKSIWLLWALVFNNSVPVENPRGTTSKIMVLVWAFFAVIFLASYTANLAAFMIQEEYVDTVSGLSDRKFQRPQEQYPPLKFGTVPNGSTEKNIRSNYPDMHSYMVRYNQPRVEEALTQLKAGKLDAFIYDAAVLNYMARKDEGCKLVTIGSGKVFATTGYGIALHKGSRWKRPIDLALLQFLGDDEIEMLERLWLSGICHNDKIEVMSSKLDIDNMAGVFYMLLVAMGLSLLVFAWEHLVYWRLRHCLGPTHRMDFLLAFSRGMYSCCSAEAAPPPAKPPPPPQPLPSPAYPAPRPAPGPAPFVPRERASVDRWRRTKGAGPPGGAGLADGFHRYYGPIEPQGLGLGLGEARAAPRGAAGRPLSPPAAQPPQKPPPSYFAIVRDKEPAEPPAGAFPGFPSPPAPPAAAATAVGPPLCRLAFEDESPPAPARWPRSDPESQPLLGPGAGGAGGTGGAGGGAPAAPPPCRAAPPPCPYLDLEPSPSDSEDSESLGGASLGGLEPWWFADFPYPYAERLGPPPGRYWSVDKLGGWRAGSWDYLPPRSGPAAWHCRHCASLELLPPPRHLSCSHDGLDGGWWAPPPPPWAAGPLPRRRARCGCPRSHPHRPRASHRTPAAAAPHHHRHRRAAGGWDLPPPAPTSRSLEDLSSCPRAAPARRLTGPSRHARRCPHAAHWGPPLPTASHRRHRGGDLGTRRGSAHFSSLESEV
# T3 sequence (O15399 28-1336, other chains not shown): as above
# T5 sequence (O15399 28-1336, other chains not shown): as above
# 5-HT2A receptor, sequence (P28223 whole entry): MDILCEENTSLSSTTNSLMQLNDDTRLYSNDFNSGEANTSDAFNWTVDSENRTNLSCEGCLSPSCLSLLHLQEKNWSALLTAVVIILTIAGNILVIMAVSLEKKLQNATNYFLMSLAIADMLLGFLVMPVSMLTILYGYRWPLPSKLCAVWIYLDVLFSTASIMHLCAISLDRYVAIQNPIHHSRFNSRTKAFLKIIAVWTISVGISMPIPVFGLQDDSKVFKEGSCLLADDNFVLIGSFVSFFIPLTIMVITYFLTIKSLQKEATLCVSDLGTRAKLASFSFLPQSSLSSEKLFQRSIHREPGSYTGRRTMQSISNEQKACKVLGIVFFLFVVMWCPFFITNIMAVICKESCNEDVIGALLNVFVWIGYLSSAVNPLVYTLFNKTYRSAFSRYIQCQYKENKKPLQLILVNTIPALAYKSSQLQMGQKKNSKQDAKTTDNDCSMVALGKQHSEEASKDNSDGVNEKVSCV
smiles,measurement,setting,value
"CCC(=O)C(C[C@H](C)N(C)C)(c1ccccc1)c1ccccc1 [Dextromethadone, dextromethadone]","α, estimated cooperativity term",[1]; operational analysis for allosteric modulators,0.22
same,L-glutamate CRC HillSlope,[1]; with test item 49 nM,1.3
same,L-glutamate CRC LogEC50,[1]; with test item 49 nM,−7.5
same,L-glutamate CRC HillSlope,[1]; with test item 195 nM,1.3
same,L-glutamate CRC LogEC50,[1]; with test item 195 nM,−7.5
same,L-glutamate CRC HillSlope,[1]; with test item 781 nM,1.7
same,L-glutamate CRC LogEC50,[1]; with test item 781 nM,−7.5
same,L-glutamate CRC HillSlope,[1]; with test item 3.1 μM,1.5
same,L-glutamate CRC LogEC50,[1]; with test item 3.1 μM,−7.4
same,L-glutamate CRC HillSlope,[1]; with test item 12.5 μM,1.1
same,L-glutamate CRC LogEC50,[1]; with test item 12.5 μM,−7.1
same,L-glutamate CRC LogEC50,[1]; with test item 50 μM,−6.9
same,calcium entry induced by 0.04 μM L-glutamate,[2],significantly reduced
same,calcium entry induced by 0.2 μM L-glutamate,[2],significantly reduced
same,calcium entry induced by 10 μM L-glutamate,[2],significantly reduced
same,calcium entry induced by 0.04 μM L-glutamate,[3],significantly reduced
same,calcium entry induced by 0.2 μM L-glutamate,[3],significantly reduced
same,calcium entry induced by 10 μM L-glutamate,[3],significantly reduced
same,calcium response (mean±SEM),[4]; 0.04 μM L-Glu + 10 μM DXT,0.5 ± 0.2
same,calcium response (mean±SEM),[4]; 0.04 μM L-Glu + 100 μM QA + 10 μM DXT,3.4 ± 0.2
same,calcium response (mean±SEM),[4]; 0.04 μM L-Glu + 1000 μM QA + 10 μM DXT,32 ± 0.7
same,calcium response (mean±SEM),[4]; 0.2 μM L-Glu + 10 μM DXT,14 ± 0.4
same,calcium response (mean±SEM),[4]; 0.2 μM L-Glu + 100 μM QA + 10 μM DXT,15 ± 0.5
same,calcium response (mean±SEM),[4]; 0.2 μM L-Glu + 1000 μM QA + 10 μM DXT,35 ± 1.0
same,"% effect on calcium entry, 100 QA + 10 DXT",[4]; 100 μM QA + 10 μM DXT,−0.2 ± 0.2%
same,calcium response (mean±SEM),[4]; 1000 μM QA + 10 μM DXT,34 ± 0.6
same,"% effect on calcium entry, 1000 QA + 10 DXT",[4]; 1000 μM QA + 10 μM DXT,34 ± 0.6%
same,calcium response (mean±SEM),[4]; 1000 μM QA + 10 μg/ml GENT + 10 μM DXT,34 ± 0.6
same,calcium response (mean±SEM),[4]; Table 41: 0.04 μM L-Glu + 10 μM DXT,0.5 ± 0.2
same,calcium response (mean±SEM),[4]; Table 43: 0.2 μM L-Glu + 10 μM DXT,14 ± 0.4
same,"residual current, % of pre-application level","[5]; 1 μM L-glutamate, −80 mV, control cells 102.5±[…]",62.5±4.1%
same,10 μM or 1 μM L-glutamate elicited current,[5]; −30 mV to −80 mV,significantly reduced
same,Ki,[6],520 nM
same,QTcF changes from base-line,[7]; SAD and MAD,none of the changes were considered clinically significant
same,"respiratory depression, dissociative and psychotomimetic effects, withdrawal signs and symptoms","[7]; SAD and MAD, abrupt discontinuation",no evidence
same,tolerability,[7]; single doses up to 150 mg and daily doses up to 75 mg for 10 days,well tolerated
same,"Block trapped (BT), trapping",[8],85.9% and 85.9%±1.9%
same,Block (B) of 10/10 μM L-glutamate/glycine-evoked currents,[8]; listed as dextromethadone,83.8%±1.2% and 83.8%
same,"Block trapped (BT), trapping",[8]; listed as dextromethadone,85.9% and 85.9%±1.9%
same,Residual block (BR),[8]; listed as dextromethadone,71.8%±1.1% and 71.8%
